Key:
[1] = test system: Chloroquine sensitive T996/86 P. falciparum; assay: In vitro antimalarial testing (schizont inhibition / 3H-hypoxanthine incorporation); format: cell-based; conditions: Plasmodium falciparum, T996
Description: For in vitro antimalarial testing, micro-titer plates were used. The concentration of drugs were prepared as pMol/well according to WHO standard procedures (WHO, 1990). The test compound was dissolved in 15% DMSO in sterile RPMI-1640. Both chloroquine sensitive (e.g., WS/97) and resistant (e.g., MN/97) isolates of Plasmodium species are used.
A schizont inhibition assay was performed as follows. The micro-titer plates were predosed with various concentrations of the test compound. 50 μL of parasitised erythrocyte suspension in RPMI-1640 (0.2 mL erythrocyte+0.3 mL serum+4-5 ml RPMI-1640) were dispensed in microtiter wells that contained various concentrations of drug. Triplicate readings were made for each concentration.
A ^3H-hypoxanthine incorporation assay was performed as follows. The testing was carried out according to the procedure of Desjardins et al. 1979. After 30 hr culture at 37 degrees C., the same microtiter plates from schizont inhibition assays with another triplicate wells were pulsed with ^3H-hypoxanthine for overnight. The cell suspensions were washed twice on millipore glass fiber filter with Millipore filter apparatus. The filter discs were counted for DPM by a Beckman LS6000 β-scintillation counter. The activity of the drug was measured by plotting DPM against concentration of drug.

P. berghei HP15 ANKA = assay: Four-day in vivo suppressive test in TO mice; parameters: species or system Plasmodium berghei; conditions: 100 mg/kg × 4 days i.p., day 5 blood films, 5 equals control
Description: The 4-day suppressive test has been widely used and it can be performed within a 1 week period. The test consists of the inoculation of parasitised erythrocytes on the first day of the experiment (D0), followed by an injection of the test compound, which is also administered on the 2nd, 3rd and 4th days of the protocol. On the 5th day, blood films are taken and antimalarial activity is assessed either by calculating parasitemia, or by scoring parasite numbers on a predetermined scale (i.e., 1-5).
The protocol is summarized as follows. Five female TO mice were used per test group. P. berghei HP15 ANKA parasites were collected by cardiac puncture using a heparinised syringe from a donor mouse having a 30+% parasitaemia. The blood was diluted with diluting agent (50% HIFCS+50% sterile PBS) to a final concentration of 1% parasitaemia or 1×10^7 infected erythrocytes per 0.2 mL of the infecting suspension. […] The steroid formulations were administered intraperitoneally 2 hours after parasite inoculation. The compounds were administered once a day starting on Do, and continued on the following three days. Blood films were made from tail blood on the day after the last dosing of compound and the blood was fixed with 100% methanol and stained with 10% Giemsa. Parasitaemias were scored on a scale of 0-5, where 5 is equal to the control.
An inoculum of 1% parasitaemia […], 0.2 mL per mouse (female strain TO mice), was delivered by intravenous injection. Drug administration commenced 2 hours after inoculation on Day 1 and continued for 3 days.

BALB/c mice = assay: Reversal of immunosenescence: HBsAg vaccination of aged mice; format: in vivo; conditions: for mice producing anti-HBsAg in response to secondary vaccination: groups of 8, 0.3 mg/mouse at primary vaccination
Description: Healthy aged (20-month) or immunologically-mature (3-month) BALB/c mice were vaccinated with hepatitis B surface antigen (HBsAg) (2 μg; Recombivax-HB; Merck) and Alum (2.75 μg). The aged mice were vaccinated with the antigen and also received a single subcutaneous injection of either 0.3 mg or 3.0 mg of 3β,7β,17β-trihydroxyandrost-5-ene (AET), BrEA or 7-oxodehydroepiandrosterone, dehydroepiandrosterone or the vehicle (placebo control). The AET, BrEA hemihydrate or dehydroepiandrosterone was present in a formulation that contained 60 mg/mL of the compound suspended in 0.1% w/v carboxymethyl cellulose sodium in 0.9% saline. 7-Oxodehydroepiandrosterone was in a formulation that contained 60 mg/mL of the compound suspended in 0.1% w/v gum arabic in 0.9% saline. A concentration of 6 mg/mL was obtained by diluting the 60 mg/mL formulation with vehicle that lacked the active substance.
Blood samples were collected 14, 21 and 34 days after treatment and the sera were analyzed by ELISA to determine the concentration of HBsAg-specific IgG (total IgG). In addition, samples obtained on day 21 were analyzed to determine the concentration of HBsAg-specific IgG1 and IgG2a subclasses. The results summarized below were average values obtained with blood samples collected 21 days after vaccination of groups of 8 mice. Subcutaneous injection was performed after shaving the hair from the thighs of each mouse. The injected volume was 50 μL for compound (3.0 mg or 0.3 mg) or placebo, and for vaccine preparation. The vehicle control consisted of carboxymethylcellulose (0.5%) in saline (0.9%). Antibody titers were determined by ELISA.
Secondary antibody response. Later, 42 days after the initial exposure to HBsAg, serum samples were taken from the mice described in the previous section and these were tested for anti-HBsAg IgG. At this time-point, vaccine-specific IgG titers were either low or undetectable. Three days later (45 days after first vaccination), the mice were injected again with HBsAg in Alum, but this time, none of the mice received immunosteroid (secondary vaccination). Serum samples collected 7 days and 14 days after the second exposure to HBsAg vaccine were assayed for anti-HBsAg antibody. […] In contrast, in aged mice that had received no immunosteroid with the first HBsAg injection, low levels of anti-HBsAg were detectable, and only in 4 of the 8 mice in this group was antibody detectable. Increases in anti-HBsAg titers were seen following secondary vaccination in aged animals that had been treated with immunosteroid in conjunction with the first HBsAg exposure. The anti-HBsAg antibody titer in serum increased following secondary vaccination in all 8 mice in the groups of aged mice that were treated at primary vaccination with the higher dose (3 mg/mouse) of AET, BrEA or 7-oxodehydroepiandrosterone, or with dehydroepiandrosterone (0.3 mg/mouse). In those aged mice that had received the lower dose (0.3 mg/mouse) of AET, BrEA or 7-oxodehydroepiandrosterone at vaccination, an intermediate response was seen, with 6 of the 8 mice producing detectable anti-HBsAg in response to secondary vaccination.

| SMILES | IC50 [1] [µM] | inhibition at 0.938 µM [1] [%] | inhibition at 1.875 µM [1] [%] | inhibition at 3.25 µM [1] [%] | inhibition at 7.5 µM [1] [%] | inhibition at 15 µM [1] [%] | inhibition at 30 µM [1] [%] | Parasitaemia Score (0-5) (P. berghei HP15 ANKA) | mice producing anti-HBsAg in response to secondary vaccination (BALB/c mice) [mice] | mice with increased anti-HBsAg antibody titer following secondary vaccination (BALB/c mice; groups of 8, 3 mg/mouse at primary vaccination) [mice] |
| --- | --- | --- | --- | --- | --- | --- | --- | --- | --- | --- |
| C[C@]12CC[C@H](O)C[C@@H]1CC[C@@H]1[C@@H]2CC[C@]2(C)C(=O)[C@H](Br)C[C@@H]12 [BrEA, 16α-bromo-3β-hydroxy-5α-androstane-17-one] | 7.5 | 31.8 | 40.9 | 43.7 | 50 | 60.1 | 98 | 1 | 6 | 8 |
| C[C@]12CC[C@H](O)CC1=CC[C@@H]1[C@@H]2CC[C@]2(C)C(=O)CC[C@@H]12 [DHEA, dehydroepiandrosterone, reference compound] | 19 | 37.2 | 23.2 | 37.2 | 38.3 | 44 | 65.6 | 1 | 8 | – |
